pIC50: −log10 of the molar value. Like-named read-outs stand apart in the source and are kept apart here.
Tested on: 80S14 (p21-deficient) cells
Assay: Cytotoxicity assay using isogenic cell lines: IC50 in 80S14 (p21-deficient) cells, SRB
Format: cell-based, human
Settings: for pIC50: SRB; for IC50: 80S14, 120 h
Summary of the method: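 80S14 (p21-deficient) cells seeded at 12,000 cells/well overnight, then exposed 5 days at 37 °C to serial dilutions (5 pM–50 μM or 170 pg/ml–10 μg/ml). TCA-fixed, sulforhodamine B-stained, absorbance at 560 nm; IC50 taken from cytotoxicity curves versus untreated controls.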

[1] = Homo sapiens, 120 h, 80S14 (p21-deficient) cells, 5 days, class symbols, read-out: IC50 for 80S14
[2] = 80S14 (p21-deficient) cells, 5 days, class symbols, read-out: IC50 for 80S14
[3] = Homo sapiens, 120 h, 80S14 p21-deficient cells, 5 days incubation, read-out: IC50 for 80SI4
[4] = Homo sapiens, read-out: IC50 for 80S14 (uM)

O=C(c1cccs1)c1cnn2c(-c3cccc(NC(=O)C4CO4)c3)ccnc12 (centres unmarked) [Example 277, N-{3-[3-(2-Thienylcarbonyl)pyrazolo[1,5-a]pyrimidin-7-yl]phenyl}-2-oxiranecarboxamide]
pIC50 [1]: > 6.00

tert-Butyl 4-[({3-[3-[3-(thien-2-ylcarbonyl)pyrazolo[1,5-a]pryimidin-7-yl]phenyl}amino)carbonyl]piperidine-1-carboxylate [Example 405]
pIC50 [2]: 5.00 to 6.00

CC1CC1COC(=O)Nc1cccc(-c2ccnc3c(C(=O)c4cccs4)cnn23)c1 (centres unmarked) [Example 187, (2-methylcyclopropyl)methyl 3-[3-(thien-2-ylcarbonyl)pyrazolo[1,5-a]pyrimidin-7-yl]phenylcarbamate]
pIC50 [3]: > 6.00

O=C(CNC(=O)C1CC1)Nc1cccc(-c2ccnc3c(C(=O)c4cccs4)cnn23)c1 [Example 126, N-[2-oxo-2-({3-[3-(thien-2-ylcarbonyl)pyrazolo[1,5-a]pyrimidin-7-yl]phenyl}amino)ethyl]cyclopropanecarboxamide]
pIC50 [3]: 4.30 to 5.00

O=C(Nc1cccc(-c2ccnc3c(C(=O)c4cccs4)cnn23)c1)c1ccc2ccccc2c1 [Example 104, N-{3-[3-(thien-2-ylcarbonyl)pyrazolo[1,5-a]pyrimidin-7-yl]phenyl}-2-naphthamide]
pIC50 [3]: 4.30 to 5.00

O=C(c1cccs1)c1cnn2c(-c3cccc(-n4cccc4)c3)ccnc12 [Example 270, [7-[3-(1H-Pyrrol-1-yl)phenyl]pyrazolo[1,5-a]pyrimidin-3-yl]-2-thienyl-methanone]
pIC50 [1]: 5.00 to 6.00

O=C(/C=C/c1ccccc1)Nc1cccc(-c2ccnc3c(C(=O)c4cccs4)cnn23)c1 [Example 71, (2E)-3-phenyl-N-{3-[3-(thien-2-ylcarbonyl)pyrazolo[1,5-a]pyrimidin-7-yl]phenyl}prop-2-enamide]
pIC50 [3]: 5.00 to 6.00

CC(C)(C)C(=O)Nc1cccc(-c2ccnc3c(C(=O)c4ccccc4)cnn23)c1 [Example 242, N-[3-(3-Benzoylpyrazolo[1,5-a]-pyrimidin-7-yl)phenyl]-2,2-dimethyl-propanamide]
IC50 [4]: 1 to 10 µM

O=C(CC1Cc2ccccc2C1)Nc1cccc(-c2ccnc3c(C(=O)c4cccs4)cnn23)c1 [Example 67, 2-(2,3-dihydro-1H-inden-2-yl)-N-{3-[3-(thien-2-ylcarbonyl)pyrazolo[1,5-a]pyrimidin-7-yl]phenyl}acetamide]
pIC50 [3]: > 6.00

CC(=O)Nc1cccc(-c2ccnc3c(C(=O)c4cccs4)cnn23)c1 [Example 250, N-[3-[3-(2-Thienylcarbonyl)pyrazolo[1,5-a]pyrimidin-7-yl]phenyl}-acetamide]
IC50 [4]: 1 to 10 µM

CN1CCN(Cc2ccc(-c3cccc(-c4ccnc5c(C(=O)c6cccs6)cnn45)c3)cc2)CC1 [Example 460, (7-{4′-[(4-Methylpiperazin-1-yl)methyl]-1,1′-biphenyl-3-yl}pyrazolo[1,5-a]pyrimidin-3-yl)(thien-2-yl)methanone]
pIC50 [1]: > 6.00

CC(C)CC(=O)Nc1cccc(-c2ccnc3c(Br)cnn23)c1 [Example 330, N-[3-(3-Bromopyrazolo[1,5-a]pyrimidin-7-yl)phenyl]-3-methylbutanamide]
pIC50 [1]: 4.30 to 5.00

CC(C)S(=O)(=O)Nc1cccc(-c2ccnc3c(C(=O)c4cccs4)cnn23)c1 [Example 30, N-{3-[3-(thien-2-ylcarbonyl)pyrazolo[1,5-a]pyrimidin-7-yl]phenyl} propane-2-sulfonamide]
pIC50 [3]: 5.00 to 6.00

O=C(Nc1cccc(-c2ccnc3c(C(=O)c4cccs4)cnn23)c1)c1ccc(Cl)cc1 [Example 89]
pIC50 (80S14 p21-deficient cells, 5 days incubation, read-out: IC50 for 80SI4): 5.00 to 6.00

N#CCC(=O)Nc1cccc(-c2ccnc3c(C(=O)c4cccs4)cnn23)c1 [Example 60, 2-cyano-N-{3-[3-(thien-2-ylcarbonyl)pyrazolo[1,5-a]pyrimidin-7-yl]phenyl]acetamide]
pIC50 [3]: > 6.00

COc1ccc(OC)c(CC(=O)Nc2cccc(-c3ccnc4c(C(=O)c5cccs5)cnn34)c2)c1 [Example 110, 2-(2,5-dimethoxyphenyl)-N-{3-[3-(thien-2-ylcarbonyl)pyrazolo[1,5-a]pyrimidin-7-yl]phenyl}acetamide]
pIC50 [3]: 5.00 to 6.00

CCCC(C)C(=O)Nc1cccc(-c2ccnc3c(C(=O)c4cccs4)cnn23)c1 (centres unmarked) [Example 154, 2-methyl-N-{3-[3-(thien-2-ylcarbonyl)pyrazolo[1,5-a]pyrimidin-7-yl]phenyl}pentanamide]
IC50 (Homo sapiens, read-out: IC50 for 80SI4 (uM)): < 1 µM

C=CCCOC(=O)NCC(=O)Nc1cccc(-c2ccnc3c(C(=O)c4cccs4)cnn23)c1 [Example 118, but-3-enyl-2-oxo-2-({3-[3-(thien-2-ylcarbonyl)pyrazolo[1,5-a]pyrimidin-7-yl]phenyl}amino)ethylcarbamate]
pIC50 [3]: 5.00 to 6.00

C=CCCC(=O)Nc1cccc(-c2ccnc3c(C(=O)c4cccs4)cnn23)c1 [Example 57, N-{3-[3-(thien-2-ylcarbonyl)pyrazolo[1,5-a]pyrimidin-7-yl]phenyl}pent-4-enamide]
pIC50 [3]: > 6.00

3-(3,5-Dimethylphenyl)-7-{3-[2-(2-piperidin-1-ylethyl)-2H-tetrazol-5-yl]phenyl}pyrazolo[1,5-a]pyrimidine [Example 500]
pIC50 [2]: 5.00 to 6.00

CC(C)CC(=O)NCC(=O)Nc1cccc(-c2ccnc3c(C(=O)c4cccs4)cnn23)c1 [Example 133, 3-methyl-N-[2-oxo-2-({3-[3-(thien-2-ylcarbonyl)pyrazolo[1,5-a]pyrimidin-7-yl]phenyl}amino)ethyl]butanamide]
pIC50 [3]: 5.00 to 6.00

O=C(c1cccs1)c1cnn2c(-c3cccc(OC4CCCC4)c3)ccnc12 [Example 265, [7-[3-(Cyclopentyloxy)phenyl]pyrazolo[1,5-a]pyrimidin-3-yl]-2-thienyl-methanone]
pIC50 [1]: 5.00 to 6.00

CC(C)CNC(=O)c1cccc(-c2ccnc3c(C(=O)c4cccs4)cnn23)c1 [Example 318, N-Isobutyl-3-[3-(2-thienylcarbonyl)pyrazolo[1,5-a]pyrimidin-7-yl]benzamide]
pIC50 [1]: > 6.00

Cc1nn2c(-c3cccc(NC(=O)OC(C)C)c3)ccnc2c1C(=O)c1cccs1 [Example 308, Isopropyl 3-[2-methyl-3-(2-thienylcarbonyl)pyrazolo[1,5-a]pyrimidin-7-yl]phenylcarbamate]
pIC50 [1]: 4.30 to 5.00

COCCOCC(=O)Nc1cccc(-c2ccnc3c(C(=O)c4cccs4)cnn23)c1 [Example 63, 2-(2-methoxyethoxy)-N-{3-[3-(thien-2-ylcarbonyl)pyrazolo[1,5-a]pyrimidin-7-yl]phenyl}acetamide]
pIC50 [3]: 5.00 to 6.00

Cc1cnc2c(C(=O)c3cccs3)cnn2c1-c1cccc(NC(=O)CC(C)C)c1 [Example 215, 3-methyl-N-{3-[6-methyl-3-(thien-2-ylcarbonyl)pyrazolo[1,5-a]pyrimidin-7-yl]phenyl}butanamide]
pIC50 [3]: 4.30 to 5.00

CN1CCCN(C(=O)Nc2cccc(-c3ccnc4c(C(=O)c5cccs5)cnn34)c2)CC1 [Example 167, 4-methyl-N-{3-[3-(thien-2-ylcarbonyl)pyrazolo[1,5-a]pyrimidin-7-yl]phenyl}-1,4-diazepane-1-carboxamide]
pIC50 [3]: 5.00 to 6.00

O=C(Nc1cccc(-c2ccnc3c(C(=O)c4cccs4)cnn23)c1)c1ccc(Cl)c(Cl)c1 [Example 100, 3,4-dichloro-N-{3-[3-(thien-2-ylcarbonyl)pyrazolo[1,5-a]pyrimidin-7-yl]phenyl}benzamide]
pIC50 [3]: 4.30 to 5.00

O=C(Nc1cccc(-c2ccnc3c(C(=O)c4cccs4)cnn23)c1)OCCN1CCCCC1 [Example 180, 2-piperidin-1-ylethyl 3-[3-(thien-2-ylcarbonyl)pyrazolo[1,5-a]pyrimidin-7-yl]phenylcarbamate]
pIC50 [3]: 5.00 to 6.00

Source: patent publication US20060063784A1, “Method of using substituted pyrazolo [1,5-a] pyrimidines” (priority 2004, published 2006)
